Assays:
Experiment in all cases: relative viability (nuclei count vs DMSO), 5 days (fraction); higher = more cells survive
[1] = compound: CS(=O)(=O)c1ccc(C(=O)Nc2ccc(Cl)c(-c3ccccn3)c2)c(Cl)c1 [Vismodegib] + C[C@]1(O)C[C@@H](c2nc(-c3ccc4ccc(-c5ccccc5)nc4c3)c3c(N)nccn32)C1 [Linsitinib] (partner 1 µM)
In short: (§1)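 Dosing by pin tool came one day after lung cancer cell lines were seeded in 1536-well plates, using either one drug or a fixed anchor-drug dose plus five library-drug doses (not always all listed) in √10 steps. After 5 days, nuclei were counted on 4× images. Relative viability is treated-well nuclei count divided by vehicle-well nuclei count, and values are medians of duplicate plates.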

[2] = compound: CS(=O)(=O)c1ccc(C(=O)Nc2ccc(Cl)c(-c3ccccn3)c2)c(Cl)c1 [Vismodegib] + CC(=O)c1c(C)c2cnc(Nc3ccc(N4CCNCC4)cn3)nc2n(C2CCCC2)c1=O [Palbociclib] (partner 0.5 µM)
In short: as §1

[3] = compound: N#CC[C@H](C1CCCC1)n1cc(-c2ncnc3[nH]ccc23)cn1 [Ruxolitinib] + CC(=O)c1c(C)c2cnc(Nc3ccc(N4CCNCC4)cn3)nc2n(C2CCCC2)c1=O [Palbociclib] (partner 0.5 µM)
In short: as §1

[4] = compound: CS(=O)(=O)c1ccc(-c2cnc(N)c(C(=O)Nc3ccccc3)n2)cc1 [VE-821] + NC(=O)Nc1cc(-c2cccc(F)c2)sc1C(=O)N[C@H]1CCCNC1 [AZD7762] (partner 0.2 µM)
In short: as §1

| Cell Line | relative viability ([1]; first compound 0.08 µM) | relative viability ([1]; first compound 0.253 µM) | relative viability ([1]; first compound 0.8 µM) | relative viability ([1]; first compound 2.53 µM) | relative viability ([1]; first compound 8 µM) | relative viability ([2]; first compound 0.08 µM) | relative viability ([2]; first compound 0.253 µM) | relative viability ([2]; first compound 0.8 µM) | relative viability ([2]; first compound 2.53 µM) | relative viability ([2]; first compound 8 µM) | relative viability ([3]; first compound 0.08 µM) | relative viability ([3]; first compound 0.253 µM) | relative viability ([3]; first compound 0.8 µM) | relative viability ([3]; first compound 2.53 µM) | relative viability ([3]; first compound 8 µM) | relative viability ([4]; first compound 0.08 µM) | relative viability ([4]; first compound 0.253 µM) | relative viability ([4]; first compound 0.8 µM) | relative viability ([4]; first compound 2.53 µM) | relative viability ([4]; first compound 8 µM) |
| --- | --- | --- | --- | --- | --- | --- | --- | --- | --- | --- | --- | --- | --- | --- | --- | --- | --- | --- | --- | --- |
| A549 | 0.537 | 0.566 | 0.448 | 0.526 | 0.615 |  |  |  |  |  |  |  |  |  |  |  |  |  |  |  |
| COR-L23 | 0.934 | 0.812 | 0.972 | 0.859 | 1.1 | 0.337 | 0.33 | 0.344 | 0.289 | 0.312 | 0.343 | 0.273 | 0.371 | 0.248 | 0.222 |  |  |  |  |  |
| COR-L 105 | 0.781 | 0.978 | 0.965 | 1.01 | 0.849 | 0.425 | 0.415 | 0.369 | 0.405 | 0.388 |  | 0.386 | 0.387 | 0.392 | 0.365 |  |  |  |  |  |
| Calu-6 | 1 | 0.9 | 0.952 | 0.904 | 1.02 |  |  |  |  |  |  |  |  |  |  |  |  |  |  |  |
| ChaGo-K-1 |  |  |  |  |  | 0.913 | 0.968 | 0.893 | 0.927 | 0.915 | 0.909 | 0.924 | 0.906 | 0.8 | 0.789 | 0.884 | 0.729 | 0.866 | 0.747 | 0.48 |
| EBC-1 | 0.871 | 0.901 | 0.981 | 0.778 | 0.883 |  |  |  |  |  |  |  |  |  |  |  |  |  |  |  |
| IA-LM | 0.629 | 0.493 | 0.68 | 0.579 | 0.63 |  |  |  |  |  |  |  |  |  |  |  |  |  |  |  |
| NCI-H520 | 0.916 | 0.928 | 0.966 | 0.974 | 1.16 | 0.182 | 0.224 | 0.254 | 0.198 | 0.288 | 0.243 | 0.218 | 0.251 | 0.204 | 0.258 |  |  |  |  |  |
| NCI-H522 |  |  |  |  |  | 1.16 | 0.985 | 0.894 | 0.923 | 1.03 | 1.12 | 1.09 | 1.16 | 0.869 | 0.933 | 0.888 | 0.707 | 0.787 | 0.962 | 0.767 |
| NCI-H596 | 0.976 | 1.07 | 1.1 | 1.01 | 1.15 |  |  |  |  |  |  |  |  |  |  | 1.03 | 0.918 | 0.915 | 0.961 | 0.787 |
| NCI-H661 | 0.5 | 0.497 | 0.575 | 0.522 | 0.579 | 0.446 | 0.432 | 0.439 | 0.39 | 0.405 | 0.425 | 0.436 | 0.427 | 0.417 | 0.381 |  |  |  |  |  |
| NCI-H1299 | 0.979 | 0.952 | 0.994 | 0.929 | 0.991 |  |  |  |  |  |  |  |  |  |  |  |  |  |  |  |
| NCI-H1563 | 1.17 | 1.34 | 1.26 | 1.01 | 1.2 |  |  |  |  |  |  |  |  |  |  |  |  |  |  |  |
| NCI-H1648 |  |  |  |  |  | 0.282 | 0.246 | 0.214 | 0.274 | 0.241 | 0.294 | 0.302 | 0.344 | 0.345 | 0.371 | 0.582 |  | 0.49 | 0.473 | 0.319 |
| NCI-H1650 |  |  |  |  |  | 0.365 | 0.363 | 0.305 | 0.304 | 0.366 | 0.333 | 0.345 | 0.395 | 0.287 | 0.356 |  |  |  |  |  |
| NCI-H1703 | 0.928 | 0.77 | 0.928 | 0.618 | 1.19 |  |  |  |  |  |  |  |  |  |  | 0.0991 | 0.11 | 0.14 | 0.119 | 0.1 |
| NCI-H2009 | 1.14 | 1.18 | 1.19 | 1.16 | 1.26 | 0.208 | 0.238 | 0.188 | 0.252 | 0.276 | 0.289 | 0.216 | 0.241 | 0.154 | 0.139 |  |  |  |  |  |
| NCI-H2023 | 0.596 | 0.662 | 0.675 | 0.579 | 0.618 | 0.321 | 0.318 | 0.374 | 0.345 | 0.4 | 0.42 | 0.4 | 0.361 | 0.387 | 0.397 |  |  |  |  |  |
| NCI-H2170 |  |  |  |  |  | 0.432 | 0.387 | 0.469 | 0.379 | 0.418 | 0.382 | 0.39 | 0.412 | 0.359 | 0.407 | 0.842 | 0.766 | 0.771 | 0.394 | 0.199 |
| NCI-H2228 | 0.972 | 0.855 | 0.835 | 0.467 | 0.763 | 0.927 | 0.74 | 0.761 | 0.627 | 0.955 | 0.622 | 0.812 | 0.843 | 0.713 | 0.219 |  |  |  |  |  |
| NCI-H2342 |  |  |  |  |  | 0.517 | 0.699 | 0.472 | 0.574 | 0.483 | 0.53 | 0.496 | 0.49 | 0.543 | 0.541 | 0.494 | 0.642 | 0.426 | 0.388 | 0.384 |
| SK-LU-1 | 1.35 | 1.06 | 1.23 | 0.693 | 1.13 | 0.407 | 0.416 | 0.416 | 0.376 | 0.384 | 0.426 | 0.416 | 0.421 | 0.374 | 0.336 |  |  |  |  |  |
| SK-MES-1 | 1.04 | 1.07 | 1.08 | 0.973 | 1.07 | 0.289 | 0.306 | 0.349 | 0.351 | 0.364 | 0.331 | 0.336 | 0.332 | 0.305 | 0.321 |  |  |  |  |  |
| SW 1573 | 0.823 | 0.728 | 0.789 | 0.64 | 0.821 | 0.395 | 0.398 | 0.363 | 0.406 | 0.451 | 0.436 | 0.382 | 0.411 | 0.546 | 0.299 |  |  |  |  |  |

From the supplement of paper PMC10307832
